Data published in patent US20170151226A1, “Treatment of Breast Cancer with Liposomal Irinotecan” (priority 2014, published 2017).

Assays:
TNBC LM2-4-luc cells = test: TNBC LM2-4 mouse model of spontaneous metastasis; type: in vivo, SCID mice; settings: nal-IRI 10 mg/kg salt, nonliposomal irinotecan 50 mg/kg salt, IV every 7 days
From the text: 42 female SCID mice were inoculated with TNBC LM2-4-luc cells in their lower right inguinal mammary fat pad. […] Post primary tumor resection, bioluminescence imaging (BLI), (BLI, Xenogen, Perkin Elmer) was used to monitor metastasis formulation. […] Animals were monitored 2-3 times per week using BLI and at the study endpoint using a 1T MRI (M3, Aspect Imaging).

[1] = 5-day regimen; cited from earlier work

SMILES | Metastatic burden, median bioluminescence flux (TNBC LM2-4-luc cells; day 12) | Median survival (TNBC LM2-4-luc cells) | Maximum tolerated dose [1]
CCc1c2c(nc3ccc(OC(=O)N4CCC(N5CCCCC5)CC4)cc13)-c1cc3c(c(=O)n1C2)COC(=O)[C@]3(O)CC [irinotecan] | 2.1×10^9 | 14 days | –
C[C@@H](O)[C@@H]1NC(=O)[C@H](CCCCN)NC(=O)[C@@H](Cc2c[nH]c3ccccc23)NC(=O)[C@H](Cc2ccccc2)NC(=O)[C@@H](NC(=O)[C@H](N)Cc2ccccc2)CSSC[C@@H](C(=O)N[C@H](CO)[C@@H](C)O)NC1=O [octreotide] | – | – | 2000 micrograms three times daily
